From patent US10485808B2, “Selective progesterone receptor modulators (SPRM) and stabilized estrogen level in patient” (BAYER PHARMA AKTIENGESELLSCHAFT, priority 2017, dated 2019)

Legend:
[1] = tested on: women diagnosed with uterine fibroids; assay: Study 15788: estradiol concentrations in serum, 1x12 weeks treatment; assay type: in vivo, human
Experimental: Example 4: Clinical Study in Women Diagnosed with Uterine Fibroids During a 1×12 Weeks/84 Days Treatment with Compound 1
Study protocol (N^o 15788):
Doses: 0.5 mg, 1 mg, 2 mg, or 4 mg once daily
(§1) Route of administration: Oral
Duration of treatment: 1×12 weeks (84 days)
Women, 18 to 50 years old, with uterine fibroids documented by transvaginal or abdominal ultrasound at screening with at least 1 uterine fibroid with largest diameter 3 cm and Heavy Menstrual Bleeding (HMB) 80 mL were eligible for enrolment in the study.
(§2) Following screening visit 1 (Visit 1), there was a screening period of up to 90 days to arrange for complete results of all baseline assessments. […] Every effort was made to keep the duration of the screening period to a minimum.
Eligible subjects were equally randomized to one of the treatment groups (Placebo, 0.5 mg, 1 mg, 2 mg, or 4 mg Compound 1). Treatment was started during the first week of the menstrual cycle following randomization. The treatment period consisted of 12 weeks (84 days) of daily tablet intake.
In this study, estradiol levels were measured • At the End of Treatment (EoT) visit and • Randomization visit 3.

[2] = tested on: women diagnosed with uterine fibroids; assay: Study 17541/A1: estradiol concentrations in serum, 1x24 weeks treatment; assay type: in vivo, human; conditions: for Estradiol concentrations in serum, Max / Estradiol concentrations in serum, Mean / Estradiol concentrations in serum, Median / Estradiol concentrations in serum, Min: Cp1 2 mg once daily oral
Experimental: Example 6: Clinical Study in Women Diagnosed with Uterine Fibroids During a 1×24 Weeks Treatment with Compound 1
Study protocol (N^o 17541/A1):
as §1
Duration of treatment: 1×24 weeks
Women, 18 to 50 years old, with uterine fibroids documented by transvaginal or abdominal ultrasound at screening with at least 1 uterine fibroid with largest diameter >3 cm and Heavy Menstrual Bleeding (HMB)>80 mL were eligible for enrolment in the study.
as §2
Eligible subjects were equally randomized to treatment 2 mg of Compound 1. Treatment was started during the first week of the menstrual cycle following randomization. The treatment period consisted of 24 weeks of daily tablet intake.
In this study, estradiol levels were measured • Treatment Visit 3 (corresponding to the end of 12 weeks treatment), • Treatment Visit 6 (corresponding to the end of 24 weeks treatment).

[3] = Cp1 0.5 mg once daily oral, End of Treatment (12 weeks)
[4] = Cp1 0.5 mg once daily oral, Randomization
[5] = Cp1 1 mg once daily oral, End of Treatment (12 weeks)
[6] = Cp1 1 mg once daily oral, Randomization
[7] = Cp1 2 mg once daily oral, End of Treatment (12 weeks)
[8] = Cp1 2 mg once daily oral, Randomization
[9] = Cp1 4 mg once daily oral, End of Treatment (12 weeks)
[10] = Cp1 4 mg once daily oral, Randomization
[11] = Treatment Visit 3 (end of 12 weeks treatment)
[12] = Treatment Visit 6 (end of 24 weeks treatment)

In the case of C[C@]12C[C@H](c3ccc(S(C)(=O)=O)cc3)C3=C4CCC(=O)C=C4CC[C@H]3[C@@H]1CC[C@@]2(O)C(F)(F)C(F)(F)F [Compound 1, (11β,17β)-17-Hydroxy-11-[4-(methylsulphonyl)phenyl]-17-(pentafluoroethyl)estra-4,9-dien-3-one], the “Estradiol levels under treatment compared to baseline” value ([1]; 0.5-4 mg once daily, 12 weeks) is reported as “moderately suppressed”, the “Safety concerns from the data analysed” value ([1]; 0.5-4 mg once daily, 12 weeks) is reported as “no safety concerns were identified” and the “Estradiol concentrations in serum, Max” value [1, 3] is reported as 357.5 pg/mL. The “Estradiol concentrations in serum, Mean” value [1, 3] was 97.3 pg/mL, the “Estradiol concentrations in serum, Median” value [1, 3] was 56.9 pg/mL and the “Estradiol concentrations in serum, Min” value [1, 3] was 8.3 pg/mL. The “Estradiol concentrations in serum, Max” value [1, 4] was 318.6 pg/mL, the “Estradiol concentrations in serum, Mean” value [1, 4] was 115.78 pg/mL and the “Estradiol concentrations in serum, Median” value [1, 4] was 100.2 pg/mL. The “Estradiol concentrations in serum, Min” value [1, 4] was 7.1 pg/mL, the “Estradiol concentrations in serum, Max” value [1, 5] was 384.9 pg/mL and the “Estradiol concentrations in serum, Mean” value [1, 5] was 72.85 pg/mL. For the same compound, the “Estradiol concentrations in serum, Median” value [1, 5] was 50 pg/mL, the “Estradiol concentrations in serum, Min” value [1, 5] was 11.8 pg/mL and the “Estradiol concentrations in serum, Median” value ([1]; Cp1 1 mg once daily oral, End of Treatment (12 weeks), listed as Cp1) was 50.1 pg/mL. The “Estradiol concentrations in serum, Max” value [1, 6] was 490.2 pg/mL, the “Estradiol concentrations in serum, Mean” value [1, 6] was 120.72 pg/mL and the “Estradiol concentrations in serum, Median” value [1, 6] was 103.65 pg/mL. For the same compound, the “Estradiol concentrations in serum, Min” value [1, 6] was 21.5 pg/mL, the “Estradiol concentrations in serum, Max” value [1, 7] was 433.9 pg/mL and the “Estradiol concentrations in serum, Mean” value [1, 7] was 76.23 pg/mL. For the same compound, the “Estradiol concentrations in serum, Median” value [1, 7] was 50 pg/mL, the “Estradiol concentrations in serum, Min” value [1, 7] was 10.5 pg/mL and the “Estradiol concentrations in serum, Median” value ([1]; Cp1 2 mg once daily oral, End of Treatment (12 weeks), listed as Cp1) was 49.95 pg/mL. The “Estradiol concentrations in serum, Max” value [1, 8] was 407.8 pg/mL, the “Estradiol concentrations in serum, Mean” value [1, 8] was 111.25 pg/mL and the “Estradiol concentrations in serum, Median” value [1, 8] was 96.6 pg/mL. For the same compound, the “Estradiol concentrations in serum, Min” value [1, 8] was 6.7 pg/mL, the “Estradiol concentrations in serum, Max” value [1, 9] was 255.3 pg/mL and the “Estradiol concentrations in serum, Mean” value [1, 9] was 56.51 pg/mL. The “Estradiol concentrations in serum, Median” value [1, 9] was 39 pg/mL, the “Estradiol concentrations in serum, Min” value [1, 9] was 9.5 pg/mL and the “Estradiol concentrations in serum, Median” value ([1]; Cp1 4 mg once daily oral, End of Treatment (12 weeks), listed as Cp1) was 38.7 pg/mL. For the same compound, the “Estradiol concentrations in serum, Max” value [1, 10] was 347.6 pg/mL, the “Estradiol concentrations in serum, Mean” value [1, 10] was 117.05 pg/mL and the “Estradiol concentrations in serum, Median” value [1, 10] was 101.7 pg/mL. The “Estradiol concentrations in serum, Min” value [1, 10] was 6.8 pg/mL, the “Mean estradiol values after the EoT” value ([1]; all Doses, data not shown) was “returned to baseline levels” and the “Estradiol levels under treatment compared to baseline” value ([2]; 2 mg once daily, 24 weeks) was “moderately suppressed”. The “Safety concerns from the data analysed” value ([2]; 2 mg once daily, 24 weeks) was “no safety concerns were identified”, the “Estradiol concentrations in serum, Max” value ([2]; Baseline) was 644.2 pg/mL and the “Estradiol concentrations in serum, Mean” value ([2]; Baseline) was 135.97 pg/mL. For the same compound, the “Estradiol concentrations in serum, Median” value ([2]; Baseline) was 93.55 pg/mL, the “Estradiol concentrations in serum, Min” value ([2]; Baseline) was 29.4 pg/mL and the “Estradiol concentrations in serum, Max” value [2, 11] was 557.5 pg/mL. For the same compound, the “Estradiol concentrations in serum, Mean” value [2, 11] was 77.46 pg/mL, the “Estradiol concentrations in serum, Median” value [2, 11] was 47.50 pg/mL and the “Estradiol concentrations in serum, Min” value [2, 11] was 11.0 pg/mL. For the same compound, the “Estradiol concentrations in serum, Max” value [2, 12] was 132.5 pg/mL, the “Estradiol concentrations in serum, Mean” value [2, 12] was 44.69 pg/mL and the “Estradiol concentrations in serum, Median” value [2, 12] was 42.50 pg/mL. The “Estradiol concentrations in serum, Min” value [2, 12] was 7.9 pg/mL and the “Mean estradiol values after the EoT” value ([2]; data not shown) was “returned to baseline levels”.
